Experiments:
[1] = tested on: T cells transduced with CART4 (tEGFR high cells); experiment: In vitro suicide assay (iC9 safety switch, CID-induced apoptosis); type: cell-based, human
Experimental: CART4 with or without iC9 cells were generated with retroviral transduction with CART4 or CART4 w/o iC9 construct. CAR-T cells were kept expanded for five to seven days after transduction. A […] (CID), the B/B homodimerizer AP20187 (Clontech Laboratories), was added at a various concentration to T cell culture. The induction of apoptosis induced by CID was evaluated 24 hr later using Annexin-v/7-AAD (BD Biosciences) staining and flow cytometry analysis. Survival cells were quantified by counting beads (BD Biosciences). Survival index was calculated as follows: number of living tEGFR^+ cells/number of living tEGFR^+ cells in untreated control samples.
In order to evaluate the efficiency of iC9 safety switch in vitro, a CART4 variation without the iC9 gene (CART4 w/o iC9) was cloned as a control. T cells transduced with CART4 or CART4 without iC9 construct were exposed to increasing concentrations of the CID AP20187 (0.1 nM to 100 nM) for 24 hours. Cell death was accessed by flow cytometry analysis with 7AAD and Annexin-V. The tEGFR-positive percentage in the survived population dropped along with the increasing concentration of the CID. […] Consistent with the observations from other studies, the cells that escape killing were those expressing low levels of the transgene with a 50% reduction in mean fluorescence intensity (MFI) of tEGFR after CID (FIG. 1E). […]

[2] = target: CD4 antigen (T-cell surface glycoprotein CD4 [Homo sapiens]) (human) (UniProt P01730); experiment: cell-based or functional assay
[3] = target: TCR Vbeta 7.1 chain (H. sapiens rearranged TCR Vbeta 7.1) (human); experiment: cell-based or functional assay
TCR Vbeta 7.1 chain (H. sapiens rearranged TCR Vbeta 7.1) (human), sequence (A0A577 whole entry, form in doubt): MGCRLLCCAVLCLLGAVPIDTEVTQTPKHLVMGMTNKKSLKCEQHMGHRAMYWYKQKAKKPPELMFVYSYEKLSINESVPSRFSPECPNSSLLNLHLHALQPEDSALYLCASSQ

Row | Compound | reduction in mean fluorescence intensity (MFI) of tEGFR in cells that escape killing ([1]; after CID) [%] | tEGFR high cells eliminated ([1]; single 100 nM dose of CID, 24 hours, flow cytometry 7AAD/Annexin-V) [%] | CD4-positive cells remaining after transduction with control CAR (flow cytometry) [2] [%] | TCR Vβ7.1-positive cells remaining after transduction with control CAR (flow cytometry) [3] [%]
1 | CC[C@H](C(=O)N1CCCC[C@H]1C(=O)O[C@H](CCc1ccc(OC)c(OC)c1)c1cccc(OCC(=O)NCC(CNC(=O)COc2cccc([C@@H](CCc3ccc(OC)c(OC)c3)OC(=O)[C@@H]3CCCCN3C(=O)[C@@H](CC)c3cc(OC)c(OC)c(OC)c3)c2)CN(C)C)c1)c1cc(OC)c(OC)c(OC)c1 [AP20187] | 50 | 69.1 |  | 
2 | CART20 chimeric antigen receptor (anti-CD20 CAR with scFv of monoclonal antibody Leu16) |  |  | 45 | 1.2

Source: patent publication US20240181056A1, “CHIMERIC ANTIGEN RECEPTOR (CAR)-T CELLS” (Imperial College Innovations Limited, priority 2021, published 2024)
